Measured values: patent publication US20040106148A1, “Polypeptides” (priority 2000, published 2004)
“And” between values parts separate entries of the source, which are not always exact repeats. Identical values can stand only once.

Tests used:
Assay in all cases: Surface plasmon resonance (BIACore), GST fusion binding to phosphoinositide in supported lipid monolayer
[1] = target: T1, human TAPP1 C-terminal PH domain (CT-PH TAPP1, residues 95 to 404), GST fusion (Homo sapiens, UniProt Q9HB21, T320A); details: supported phosphatidylcholine monolayers, 1:1 binding model, read-out: Apparent Kd
T1 construct: made in house; host or cells: human embryonic kidney 293 cells (pEBG-2T)
T1 sequence (Q9HB21 95-404 T320A): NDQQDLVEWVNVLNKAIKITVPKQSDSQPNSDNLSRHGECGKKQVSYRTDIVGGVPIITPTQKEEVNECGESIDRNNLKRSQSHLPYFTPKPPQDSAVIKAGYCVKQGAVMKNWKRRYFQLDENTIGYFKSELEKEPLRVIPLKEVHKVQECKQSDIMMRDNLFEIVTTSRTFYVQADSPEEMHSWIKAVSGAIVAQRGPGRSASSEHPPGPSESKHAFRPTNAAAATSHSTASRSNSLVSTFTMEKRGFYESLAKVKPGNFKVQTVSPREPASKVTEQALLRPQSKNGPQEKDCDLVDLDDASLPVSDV
Text: (§1) Cloning of PH domains and preparation of expression constructs. All the human and mouse EST's were obtained from the I.M.A.G.E. Consortium and sequenced. The plant EST (accession number T04439) encoding a full length clone of AtPH1 was obtained from the Arabidopsis Biological Research. Centre (Ohio University). The sequence of each EST was verified and the full length PH domain of each EST was amplified by PCR using the Hi-fidelity PCR system with primers designed to incorporate a Kozak site, an initiating ATG codon followed by a myc epitope tag and a stop codon after the PH domain. […]
(§2) Kinetic analyses of the interactions between the GST PH domain fusions and the polyphosphoinositides were made using surface plasmon resonance based procedures as described previously, with the following modifications. […] Data were analysed using the bimolecular interaction model and the global fitting feature of the BIAevaluation 3 software for several sensorgrams at different protein concentrations. […] The relative binding affinities of each protein relative to the binding of full length GST-TAPP1 to PtdIns(3,4)P2 were also calculated.
We studied the specificity and affinity of interaction of the PH domains for phosphoinositide lipids using either a “protein-lipid overlay” assay (FIG. 2) or the more quantitative surface plasmon resonance based approach (Table 2). […]

[2] = target: T2, mouse TAPP2 C-terminal PH domain (residues 174 to 425), GST fusion (Mus musculus, UniProt Q9ERS5); details: read-out: apparent Kd
T2 construct: made in house; host or cells: human embryonic kidney 293 cells (pEBG-2T)
T2 sequence (Q9ERS5 174-425): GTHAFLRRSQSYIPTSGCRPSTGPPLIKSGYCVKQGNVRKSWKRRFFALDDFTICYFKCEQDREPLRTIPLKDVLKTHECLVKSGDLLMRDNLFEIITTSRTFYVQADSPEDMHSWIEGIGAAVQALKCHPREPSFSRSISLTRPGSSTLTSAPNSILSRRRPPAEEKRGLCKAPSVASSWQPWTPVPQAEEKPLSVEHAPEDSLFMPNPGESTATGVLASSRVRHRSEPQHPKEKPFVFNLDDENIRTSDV
Text: as §1, §2

[3] = target: T3, mouse TAPP2, full length (FL-TAPP2, accession AF286161), wild type, GST fusion (Mus musculus, UniProt Q9ERS5); details: supported phosphatidylcholine monolayers, 1:1 binding model, NB, no binding detected, read-out: Apparent Kd
T3 construct: made in house; host or cells: human embryonic kidney 293 cells (pEBG-2T)
T3 sequence (Q9ERS5 whole entry, the tested form may be a part): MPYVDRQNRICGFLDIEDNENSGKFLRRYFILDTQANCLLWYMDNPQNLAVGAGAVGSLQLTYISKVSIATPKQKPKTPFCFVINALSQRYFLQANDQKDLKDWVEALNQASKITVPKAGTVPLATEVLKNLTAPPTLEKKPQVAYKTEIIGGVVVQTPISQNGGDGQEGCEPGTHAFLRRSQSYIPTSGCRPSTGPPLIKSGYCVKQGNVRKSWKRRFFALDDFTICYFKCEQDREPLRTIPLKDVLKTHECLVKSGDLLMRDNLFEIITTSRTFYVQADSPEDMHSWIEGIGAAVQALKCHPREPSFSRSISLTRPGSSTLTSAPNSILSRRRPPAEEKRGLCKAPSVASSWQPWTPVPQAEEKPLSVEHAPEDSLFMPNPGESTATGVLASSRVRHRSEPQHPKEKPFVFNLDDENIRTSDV
Procedure: (§3) Expression of GST-PH domains in human embryonic kidney 293 cells. […] For the expression of each construct, twenty 10 cm diameter dishes of 293 cells were cultured and each dish transfected with 5 μg of the pEBG-2T construct, using a modified calcium phosphate method. 36 h post-transfection, the cells were lysed in 1 ml of ice-cold Buffer A, the lysates pooled, centrifuged at 4° C. for 10 min at 13,000×g and the GST-fusion proteins were purified by affinity chromatography on glutathione-Sepharose and stored as described above.
(§4) Cloning TAPP1, TAPP2, FAPP1 and PEPP1. Full length human TAPP1, full length mouse TAPP2, partial mouse TAPP1, partial human TAPP2, and full length human and mouse FAPP1 sequences were deduced by sequencing the EST clones listed in Table 3. […] The constructs used to express full length and deletion mutants of TAPP1 and TAPP2 were generated by PCR, using as a template ESTs encoding full length human TAPP1 (accession number AI216176) and full length mouse TAPP2 (accession number AA111410). […]
as §2
(§5) We studied the specificity and affinity of interaction of the PH domains for phosphoinositide lipids using either a “protein-lipid overlay” assay (FIG. 2) or the more quantitative surface plasmon resonance based approach (Table 2). […] For the surface plasmon resonance based assay, the apparent Kd values of the GST PH domain fusion proteins resulting from their interaction with a supported lipid monolayer containing a low mole fraction of phosphoinositide, was determined (Table 2).

[4] = target: T4, human TAPP1, full length (FL-TAPP1, accession AF286160), wild type, GST fusion (Homo sapiens, UniProt Q9HB21, T320A); details: supported phosphatidylcholine monolayers, 1:1 binding model, NB, no binding detected, read-out: Apparent Kd
T4 construct: made in house; host or cells: human embryonic kidney 293 cells (pEBG-2T)
T4 sequence (Q9HB21 whole entry T320A, the tested form may be a part): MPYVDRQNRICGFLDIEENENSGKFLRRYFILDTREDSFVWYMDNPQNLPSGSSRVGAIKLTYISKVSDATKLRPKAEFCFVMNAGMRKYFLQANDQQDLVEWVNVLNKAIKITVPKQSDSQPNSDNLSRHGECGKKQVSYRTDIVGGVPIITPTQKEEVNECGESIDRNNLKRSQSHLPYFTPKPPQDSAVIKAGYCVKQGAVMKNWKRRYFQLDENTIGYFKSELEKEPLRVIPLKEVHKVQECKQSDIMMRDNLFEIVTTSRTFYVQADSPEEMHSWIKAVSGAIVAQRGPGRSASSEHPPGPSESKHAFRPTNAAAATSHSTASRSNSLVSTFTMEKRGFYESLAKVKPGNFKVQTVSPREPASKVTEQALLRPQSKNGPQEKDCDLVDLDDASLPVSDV
Procedure: as §3, §4, §2, §5

[5] = target: T5, human TAPP1, full length, mutant R28L (FL-TAPP1 [R28L]), GST fusion (Homo sapiens, UniProt Q9HB21, R28L/T320A); details: supported phosphatidylcholine monolayers, 1:1 binding model, read-out: Apparent Kd
T5 construct: wild type and mutant forms of full length (FL); made in house; host or cells: human embryonic kidney 293 cells (pEBG-2T)
T5 sequence (Q9HB21 whole entry R28L/T320A, the tested form may be a part): as the sequence (Q9HB21 whole entry T320A, the tested form may be a part) above, with R28L counted along it
Procedure: as §3, §4, §2, §5

Kd [1]: 27 nM
Kd [2]: 30 nM
Kd [3]: 30 nM
Kd [4]: 5 nM and ~5 nM
Kd [5]: 28 nM
Structure (SMILES): CCCCCCCCCCCCCCCC(=O)OC[C@H](COP(=O)(O)O[C@H]1[C@H](O)[C@@H](O)[C@H](OP(=O)(O)O)[C@@H](OP(=O)(O)O)[C@H]1O)OC(=O)CCCCCCCCCCCCCCC [PtdIns(3,4)P2]
